These results are taken from patent publication US12534469B2 (CHILDREN'S HOSPITAL MEDICAL CENTER, priority 2020, dated 2026).

“Also recorded” adds a separate entry of the source.

One assay has as its target T1, FLT3 K663Q (Homo sapiens, UniProt P36888, K663Q).
T1 construct: purchased DiscoverX (KINOMEscan); host or cells: E. coli (T7 phage) or HEK-293
T1 sequence (P36888 27-993 K663Q): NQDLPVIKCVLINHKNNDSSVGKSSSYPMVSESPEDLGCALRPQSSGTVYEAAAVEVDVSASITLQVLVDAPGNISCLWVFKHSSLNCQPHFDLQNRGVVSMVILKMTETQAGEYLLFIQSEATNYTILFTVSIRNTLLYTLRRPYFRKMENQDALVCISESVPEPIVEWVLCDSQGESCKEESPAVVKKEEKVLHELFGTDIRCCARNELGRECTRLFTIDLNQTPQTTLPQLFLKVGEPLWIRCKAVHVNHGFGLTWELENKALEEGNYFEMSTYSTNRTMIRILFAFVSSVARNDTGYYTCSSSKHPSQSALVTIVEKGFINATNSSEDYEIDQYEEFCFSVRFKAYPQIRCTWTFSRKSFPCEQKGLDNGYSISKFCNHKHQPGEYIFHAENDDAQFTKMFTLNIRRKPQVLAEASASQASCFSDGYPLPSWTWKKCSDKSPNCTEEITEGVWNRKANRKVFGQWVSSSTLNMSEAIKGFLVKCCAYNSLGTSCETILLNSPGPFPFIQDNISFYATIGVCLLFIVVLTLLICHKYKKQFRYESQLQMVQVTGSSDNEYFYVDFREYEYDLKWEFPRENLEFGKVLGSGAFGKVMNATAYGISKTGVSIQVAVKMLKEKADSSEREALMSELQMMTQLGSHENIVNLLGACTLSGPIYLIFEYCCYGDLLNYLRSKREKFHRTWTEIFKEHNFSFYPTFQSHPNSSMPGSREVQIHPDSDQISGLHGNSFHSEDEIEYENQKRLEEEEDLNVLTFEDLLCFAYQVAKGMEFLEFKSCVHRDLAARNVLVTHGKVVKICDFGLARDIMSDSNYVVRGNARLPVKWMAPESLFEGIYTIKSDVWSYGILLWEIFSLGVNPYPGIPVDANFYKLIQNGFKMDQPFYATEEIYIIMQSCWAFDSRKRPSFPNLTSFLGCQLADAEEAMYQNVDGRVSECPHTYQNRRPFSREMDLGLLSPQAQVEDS
Description: DiscoverX KINOMEscan competition binding assay, FLT3 K663Q. An excerpt:
Kinase binding data were obtained for various exemplary compounds prepared according to Examples 1-25 using the DiscoverX KINOMEscan® active site-directed competition binding site-directed assay protocol described below. […] As a result, the data report thermodynamic interaction affinities (Kd values), rather than IC50 values that are dependent on ATP concentrations. The assay uses a DNA-tagged version of the protein kinase, and an immobilized ligand bound to a solid support. Compounds that directly or indirectly prevent kinase binding to the immobilized ligand reduce the amount of kinase captured on the solid support, which is detected using an ultra-sensitive qPCR method. Affinity constants reported from the assay have been reported to be independent of the immobilized ligand used that is coupled to the solid support (See supplemental information in Fabian, M. A. et. al., (2005) Nat. Biotechnol. 23, 329-336; Wodicka, L. M. et. al., (2010) Chem. Biol. 17, 1241-1249.)
Kinase-tagged T7 phage strains were prepared in an E. coli host derived from the BL21 strain. E. coli were grown to log-phase and infected with T7 phage and incubated with shaking at 32° C. until lysis. The lysates were centrifuged and filtered to remove cell debris. The remaining kinases were produced in HEK-293 cells and subsequently tagged with DNA for qPCR detection. […] The liganded beads were blocked with excess biotin and washed with blocking buffer (SeaBlock (Pierce), 1% BSA, 0.05% Tween 20, 1 mM DTT) to remove unbound ligand and to reduce non-specific binding. […] Test compounds were prepared as 111× stocks in 100% DMSO. Kds were determined using an 11-point 3-fold compound dilution series with three DMSO control points. […] The compounds were then diluted directly into the assays such that the final concentration of DMSO was 0.9%. All reactions were performed in polypropylene 384-well plates. Each was a final volume of 0.02 mL. […] The kinase concentration in the eluates was measured by qPCR.
Binding constants (Kds) were calculated with a standard dose-response curve using the Hill equation. […]

A further assay deals with MOLM14 (D835Y) cells. Description: Combination drug screening, 10 x 10 matrix, cell viability (Cell Titer Glo). The settings on record: for Interaction with Venetoclax / Sum Excess HSA: combination with Venetoclax, 10 x 10 dataset; for Sum Excess HSA: 48 hours. The assay is classed as cell-based. Here is the method:
Briefly, 10 nL of compounds were acoustically dispensed into 1536-well white polystyrene tissue culture-treated plates with an Echo 550 acoustic liquid handler (Labcyte). MOLM14 (D835Y) cells were then added to compound-containing plates at a density of 500-cells/well in 5 μL of medium. A 10-point custom concentration range was used for all listed drugs. Plates were incubated for 48 hours at standard incubator conditions covered by a stainless steel gasketed lid to prevent evaporation. 48 h post compound addition, 3 μL of Cell Titer Glo (Promega) were added to each well and plates were incubated at room temperature for 15 minutes with the stainless-steel lid in place. Luminescence readings were taken using a Viewlux imager (PerkinElmer) with a 2 second exposure time per plate.
However, different methodologies may yield different numerical scores, and different definitions of what constitutes a deviation from mere additivity vs true drug synergy.
However, the utility in certain drug combinations vs others should not be distinguished based on cutoffs between HSA scores, because the score itself is only a relative indicator that is completely dependent on experimental design and is not an absolute number. Furthermore, the concept of what constitutes clinically meaningful drug synergy is something that is still being debated, not only between pharmacologists and physicians, but amongst pharmacologists themselves.
(In ATP-based viability assays light output follows the ATP content of the culture.)

Consider `COc1cc2ncc(-c3cccc(N[C@H]4CNC[C@@H]4F)n3)n2nc1C1CC1` [Compound 96, 6-(6-cyclopropyl-7-methoxyimidazo[1,2-b]pyridazin-3-yl)-N-((3S,4S)-4-fluoropyrrolidin-3-yl)pyridin-2-amine], for which the dissociation constant Kd (as a rule, the equilibrium constant for the complex coming apart) at FLT3 K663Q stood at 0.6 nM. In addition, in the assay with MOLM14 (D835Y) cells, the “Interaction with Venetoclax” value was “profound synergism” and the “Sum Excess HSA” value was −543.2.

In the case of `COc1cc2ncc(-c3cccc(N[C@@H]4CCNC4)n3)n2nc1C1CC1` [Compound 97, (R)-6-(6-cyclopropyl-7-methoxyimidazo[1,2-b]pyridazin-3-yl)-N-(pyrrolidin-3-yl)pyridin-2-amine], on FLT3 K663Q, the Kd amounted to 1.4 nM.

As to `COc1cc2ncc(-c3cccc(N[C@H]4CNC[C@@H]4C(F)(F)F)n3)n2nc1C1CC1` [Compound 99, 6-(6-cyclopropyl-7-methoxyimidazo[1,2-b]pyridazin-3-yl)-N-((3R,4S)-4-(trifluoromethyl)pyrrolidin-3-yl)pyridin-2-amine], in the assay on MOLM14 (D835Y) cells, the “Interaction with Venetoclax” value is “profound synergism; also recorded: Synergistic” and the “Sum Excess HSA” value was −789.4.

The compound `COc1cc2ncc(-c3cccc(N[C@H]4CNCC[C@@H]4F)n3)n2nc1C1CC1` [Compound 102, 6-(6-cyclopropyl-7-methoxyimidazo[1,2-b]pyridazin-3-yl)-N-((3S,4S)-4-fluoropiperidin-3-yl)pyridin-2-amine] yielded a Kd on FLT3 K663Q of 0.37 nM. In the assay on MOLM14 (D835Y) cells, the “Interaction with Venetoclax” value was “profound synergism” and the “Sum Excess HSA” value is −188.8.

Consider `COc1cc2ncc(-c3nc(N[C@@H]4CCCNC4)c(F)cc3F)n2nc1C1CC1` [Compound 106, (R)-6-(6-cyclopropyl-7-methoxyimidazo[1,2-b]pyridazin-3-yl)-3,5-difluoro-N-(piperidin-3-yl)pyridin-2-amine], for which the “concentration of compound required to fully potentiate a 7.8 nM concentration of Venetoclax to <5% of the maximum response” value in the assay on MOLM14 (D835Y) cells (7.8 nM Venetoclax, 10×10 combination) turned out to be 3.1 nM. Further, in the assay on MOLM14 (D835Y) cells, the “Interaction with Venetoclax” value is reported as “profound synergism” and the “Sum Excess HSA” value was −334.

Consider `COc1cc2ncc(-c3nc(N[C@H]4CNCC[C@@H]4F)c(F)cc3F)n2nc1C1CC1` [Compound 108, 6-(6-cyclopropyl-7-methoxyimidazo[1,2-b]pyridazin-3-yl)-3,5-difluoro-N-((3S,4S)-4-fluoropiperidin-3-yl)pyridin-2-amine], for which, in the assay with MOLM14 (D835Y) cells, the “Interaction with Venetoclax” value was “profound synergism” and the “Sum Excess HSA” value was −480.4. In the assay with MOLM14 (D835Y) cells (combined with 15.6 nM Venetoclax, 10×10 array), the “concentration at which synergy (Delta Bliss score) is highest” value is 0.8 to 1.6 nM.
